This is an account of results in US20260078130A1, “NAMPT MODULATORS, PREPARATIONS, AND USES THEREOF” (SIRONAX LTD., priority 2022, published 2026).

Read-outs that look alike come from different tables or passages of the source. Some results are limits rather than exact numbers.

The target in the experiment is T1, human enzyme NAMPT (full length) (Homo sapiens, UniProt P43490).
T1 construct: human enzyme NAMPT (full length)
As to the kind of experiment: NMN fluorescence biochemical assay (stimulation of NMN synthesis by NAMPT). To be noted: for EC50: concentration giving half-maximal activation, read-out: Enzymatic EC50; for Enzymatic Emax: fold change of maximal activation compared to DMSO. Put shortly:
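Full-length human NAMPT (100 nM) was preincubated 15 min at 37 °C with compound in 50 mM Tris-HCl pH 7.5, 10 mM MgCl2, 2 mM DTT, then reacted 1 h at 37 °C with 50 μM NAM, 100 μM PRPP, 4 mM ATP (stated solution concentrations). NMN was derivatised with acetophenone/KOH then formic acid and read at Ex/Em 382/445 nm; EC50 and Emax (fold over DMSO) reported.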

Setting [1] is: NMN fluorescence assay, purified human NAMPT 100 nM.
The mark [2] stands for this setting: NMN synthesis by purified human NAMPT (100 nM).

T1 sequence (P43490 whole entry): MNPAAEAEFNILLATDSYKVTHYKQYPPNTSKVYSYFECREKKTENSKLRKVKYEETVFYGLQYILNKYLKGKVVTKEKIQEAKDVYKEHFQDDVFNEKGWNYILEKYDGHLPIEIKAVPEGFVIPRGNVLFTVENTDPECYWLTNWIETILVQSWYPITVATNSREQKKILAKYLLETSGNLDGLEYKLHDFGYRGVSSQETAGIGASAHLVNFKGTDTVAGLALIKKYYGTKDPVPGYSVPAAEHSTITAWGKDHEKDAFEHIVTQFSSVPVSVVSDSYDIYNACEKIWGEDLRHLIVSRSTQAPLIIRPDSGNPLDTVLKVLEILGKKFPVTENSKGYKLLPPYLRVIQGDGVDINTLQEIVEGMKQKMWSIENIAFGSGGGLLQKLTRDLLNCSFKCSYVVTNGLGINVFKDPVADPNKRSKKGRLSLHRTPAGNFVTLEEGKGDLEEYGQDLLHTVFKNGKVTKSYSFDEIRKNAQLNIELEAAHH

Consider `Cc1[nH]nnc1/C=C/CN1C(=O)c2ccccc2C1Cc1ncccc1Br` (stereo not drawn) [Compound 386, (E)-3-((3-bromopyridin-2-yl)methyl)-2-(3-(5-methyl-1H-1,2,3-triazol-4-yl)allyl)isoindolin-1-one], for which the “Enzymatic Emax” value is reported as “B (3≥B>2)”. Moreover, the EC50 (as a rule, the concentration that produces a half-maximal response) under setting [1] is 0.5 to 5 µM.
With `O=C1Cc2ccccc2CN1Cc1ccc(O)cc1` [Compound 10, 2-(4-hydroxybenzyl)-1,4-dihydroisoquinolin-3(2H)-one], the “Enzymatic Emax” value is listed as “B (3≥B>2)”. In addition, the EC50 under setting [2] was no less than 5 µM.
On to `CN(C)C1CN(c2ccc3c(c2)C(Cc2c(Cl)cnn2C)N(CC2CC4(CNC(=O)O4)C2)C3=O)C1` (stereo not drawn) [Compound 497, 2-((3-((4-chloro-1-methyl-1H-pyrazol-5-yl)methyl)-5-(3-(dimethylamino)azetidin-1-yl)-1-oxoisoindolin-2-yl)methyl)-5-oxa-7-azaspiro[3.4]octan-6-one], for which the “Enzymatic Emax” value is given as “B (3≥B>2)”. Besides, the EC50 under setting [1] is less than 0.5 µM.
As to `COc1cccc2c1C(=O)N(CC1CC3(CNC(=O)O3)C1)C2Cc1c(Cl)cnn1C` (stereo not drawn) [Compound 433, 2-((1-((4-chloro-1-methyl-1H-pyrazol-5-yl)methyl)-4-methoxy-3-oxoisoindolin-2-yl)methyl)-5-oxa-7-azaspiro[3.4]octan-6-one], the “Enzymatic Emax” value was “B (3≥B>2)”. Also, the EC50 under setting [1] was in the range of 0.5 to 5 µM.
For the compound `COc1c(F)cc(CN2C(=O)c3ccccc3C2Cc2c(Cl)cnn2C)cc1F` (stereo not drawn) [Compound 560, 3-((4-chloro-1-methyl-1H-pyrazol-5-yl)methyl)-2-(3,5-difluoro-4-methoxybenzyl)isoindolin-1-one], the “Enzymatic Emax” value is listed as “B (3≥B>2)”. Further, the EC50 under setting [1] is no less than 5 µM.
In the same order, the values of `O=C1c2ccccc2C(Cc2ncccc2Br)N1[C@H]1C[C@H](c2c[nH]nn2)C1` (stereo partly drawn) [Compound 403, 2-((1r,3r)-3-(1H-1,2,3-triazol-4-yl)cyclobutyl)-3-((3-bromopyridin-2-yl)methyl)isoindolin-1-one] are “C (2≥C)” and no less than 5 µM.
On to `Cn1cc(Cl)c(CC2c3ccccc3C(=O)N2Cc2ccc3[nH]nnc3c2)n1` (stereo not drawn) [Compound 250, 2-((1H-benzo[d][1,2,3]triazol-5-yl)methyl)-3-((4-chloro-1-methyl-1H-pyrazol-3-yl)methyl) isoindolin-1-one], for which the “Enzymatic Emax” value was “B (3≥B>2)”. In addition, the EC50 under setting [2] is less than 0.5 µM.
Turning to `CC(C)(C)c1ccc2c(c1)C(=O)N(Cc1ccc(O)cc1)C2=O` [Compound 18, 5-(tert-butyl)-2-(4-hydroxybenzyl)isoindoline-1,3-dione], the “Enzymatic Emax” value is “B (3≥B>2)”. In addition, the EC50 under setting [2] was 0.5 to 5 µM.
For the compound `Cn1ncc(Cl)c1CC1c2cc(F)cc(F)c2C(=O)N1CC1CC2(CNC(=O)O2)C1` (stereo not drawn) [Compound 496, 2-((1-((4-chloro-1-methyl-1H-pyrazol-5-yl)methyl)-4,6-difluoro-3-oxoisoindolin-2-yl)methyl)-5-oxa-7-azaspiro[3.4]octan-6-one], the “Enzymatic Emax” value was “B (3≥B>2)”. For the same compound, the EC50 under setting [1] is less than 0.5 µM.
Regarding `O=C1c2ccccc2C(Cc2ncccc2Br)N1Cc1cnc2[nH]c(=O)oc2c1` (stereo not drawn) [Compound 222, 6-((1-((3-bromopyridin-2-yl)methyl)-3-oxoisoindolin-2-yl)methyl)oxazolo[4,5-b]pyridin-2(3H)-one], the “Enzymatic Emax” value is recorded as “B (3≥B>2)”. Further, under setting [2], the EC50 was no less than 5 µM.
In the same order, the values of `CC1c2c(Br)cccc2C(=O)N1Cc1ccc2[nH]c(=O)oc2c1` (stereo not drawn) [Compound 247, 6-((4-bromo-3-methyl-1-oxoisoindolin-2-yl)methyl)benzo[d]oxazol-2(3H)-one] are “B (3≥B>2)” and no less than 5 µM.
In the same order, the values of `O=c1[nH]n(Cc2ccc(O)cc2)c2ccccc12` [Compound 13, 1-(4-hydroxybenzyl)-1,2-dihydro-3H-indazol-3-one] are “B (3≥B>2)” and no less than 5 µM.
With `Cc1cc2[nH]c(=O)oc2cc1CN1C(=O)c2ccccc2C1Cc1ncccc1Br` (stereo not drawn) [Compound 333, 6-((1-((3-bromopyridin-2-yl)methyl)-3-oxoisoindolin-2-yl)methyl)-5-methylbenzo[d]oxazol-2(3H)-one], the “Enzymatic Emax” value is “B (3≥B>2)”. For the same compound, under setting [1], the EC50 was 0.5 to 5 µM.
`O=C1c2ccccc2C(Cc2ncccc2Br)N1Cc1ccc2[nH]c(=O)ncc2c1` (stereo not drawn) [Compound 348, 6-((1-((3-bromopyridin-2-yl)methyl)-3-oxoisoindolin-2-yl)methyl)quinazolin-2(1H)-one]: the “Enzymatic Emax” value is given as “C (2≥C)”. Also, the EC50 under setting [1] was 0.5 to 5 µM.
On to `Cn1nc(Cl)c(Cl)c1CC1c2ccccc2C(=O)N1C[C@H]1C[C@@]2(CNC(=O)O2)C1` (stereo partly drawn) [Compound 500, (2r,4r)-2-((1-((3,4-dichloro-1-methyl-1H-pyrazol-5-yl)methyl)-3-oxoisoindolin-2-yl)methyl)-5-oxa-7-azaspiro[3.4]octan-6-one], for which the “Enzymatic Emax” value is reported as “C (2≥C)”. Further, under setting [1], the EC50 fell in the range of 0.5 to 5 µM.
With `Cn1ncc(Cl)c1C[C@@H]1c2ccccc2C(=O)N1C/C=C/c1c[nH]nn1` [Compound 313, (R,E)-2-(3-(1H-1,2,3-triazol-4-yl)allyl)-3-((4-chloro-1-methyl-1H-pyrazol-5-yl)methyl)isoindolin-1-one], the “Enzymatic Emax” value is on record as “C (2≥C)”. The EC50 under setting [2] is no less than 5 µM.
As for `CC1c2ccccc2C(=O)N1Cc1cc(F)c2[nH]nnc2c1` (stereo not drawn) [Compound 290, 2-((7-fluoro-1H-benzo[d][1,2,3]triazol-5-yl)methyl)-3-methylisoindolin-1-one], the “Enzymatic Emax” value is listed as “C (2≥C)”. Also, the EC50 under setting [2] was no less than 5 µM.
Take `N#Cc1cccc(CC2c3ccccc3C(=O)N2Cc2ccc3[nH]c(=O)oc3c2)c1F` (stereo not drawn) [Compound 204, 2-fluoro-3-((3-oxo-2-((2-oxo-2,3-dihydrobenzo[d]oxazol-6-yl)methyl)isoindolin-1-yl)methyl)benzonitrile]: the “Enzymatic Emax” value is “B (3≥B>2)”. The EC50 under setting [2] was 0.5 to 5 µM.
The matching figures for `Cc1cccc2c1C(C)N(Cc1ccc3[nH]c(=O)oc3c1)C2=O` (stereo not drawn) [Compound 246, 6-((3,4-dimethyl-1-oxoisoindolin-2-yl)methyl)benzo[d]oxazol-2(3H)-one]: “B (3≥B>2)” and no less than 5 µM.
As for `O=C1c2ccccc2C(Cc2ncccc2C2CC2)N1Cc1ccc2[nH]c(=O)oc2c1` (stereo not drawn) [Compound 184, 6-((1-((3-cyclopropylpyridin-2-yl)methyl)-3-oxoisoindolin-2-yl)methyl)benzo[d]oxazol-2(3H)-one], the “Enzymatic Emax” value is “B (3≥B>2)”. Under setting [2], the EC50 was in the range of 0.5 to 5 µM.
In the case of `Cn1nc(Cl)c(Cl)c1CC1c2ccccc2C(=O)N1C[C@H]1C[C@@]2(CNC(=O)O2)C1` (stereo partly drawn) [Compound 499, (2s,4s)-2-((1-((3,4-dichloro-1-methyl-1H-pyrazol-5-yl)methyl)-3-oxoisoindolin-2-yl)methyl)-5-oxa-7-azaspiro[3.4]octan-6-one], the “Enzymatic Emax” value is “B (3≥B>2)”. Also, the half-maximal effective concentration (EC50) under setting [1] was less than 0.5 µM.
`O=C1c2ccccc2C(Cc2ncccc2Br)N1Cc1ccc2[nH]c(=S)oc2c1` (stereo not drawn) [Compound 287, 3-((3-bromopyridin-2-yl)methyl)-2-((2-thioxo-2,3-dihydrobenzo[d]oxazol-6-yl)methyl) isoindolin-1-one]: the “Enzymatic Emax” value is on record as “B (3≥B>2)”. The EC50 under setting [2] is 0.5 to 5 µM.
Consider `O=C1c2ccccc2C(Cc2ncccc2Br)N1Cc1ccn2cnnc2c1` (stereo not drawn) [Compound 239, 2-([1,2,4]triazolo[4,3-a]pyridin-7-ylmethyl)-3-((3-bromopyridin-2-yl)methyl)isoindolin-1-one], for which the “Enzymatic Emax” value was “B (3≥B>2)”. Also, the EC50 under setting [2] was no less than 5 µM.
With `O=C1c2ccccc2C(CC2CCCC2)N1Cc1ccc2[nH]c(=O)oc2c1` (stereo not drawn) [Compound 252, 6-((1-(cyclopentylmethyl)-3-oxoisoindolin-2-yl)methyl)benzo[d]oxazol-2(3H)-one], the “Enzymatic Emax” value was “B (3≥B>2)”. Further, the EC50 under setting [2] was 0.5 to 5 µM.
Turning to `O=C1c2ccccc2C(Cc2cc(F)ccn2)N1Cc1ccc2[nH]c(=O)oc2c1` (stereo not drawn) [Compound 233, 6-((1-((4-fluoropyridin-2-yl)methyl)-3-oxoisoindolin-2-yl)methyl)benzo[d]oxazol-2(3H)-one], the “Enzymatic Emax” value is “B (3≥B>2)”. For the same compound, the EC50 under setting [2] lay within 0.5 to 5 µM.
As for `NC(=O)c1ccc(CC2c3ccccc3C(=O)N2Cc2ccc3[nH]c(=O)oc3c2)cc1` (stereo not drawn) [Compound 253, 4-((3-oxo-2-((2-oxo-2,3-dihydrobenzo[d]oxazol-6-yl)methyl)isoindolin-1-yl)methyl) benzamide], the “Enzymatic Emax” value was “A (A>3)”. Under setting [2], the EC50 was no less than 5 µM.
Take `CC1c2cc(Cl)ccc2C(=O)N1Cc1ccc2[nH]c(=O)oc2c1` (stereo not drawn) [Compound 265, 6-((5-chloro-3-methyl-1-oxoisoindolin-2-yl)methyl)benzo[d]oxazol-2(3H)-one]: the “Enzymatic Emax” value is “A (A>3)”. Besides, the EC50 under setting [2] was no less than 5 µM.
With `Cc1ncccc1CC1c2ccccc2C(=O)N1Cc1ccc2[nH]c(=O)oc2c1` (stereo not drawn) [Compound 165, 6-((1-((2-methylpyridin-3-yl)methyl)-3-oxoisoindolin-2-yl)methyl)benzo[d]oxazol-2(3H)-one], the “Enzymatic Emax” value was “B (3≥B>2)”. The EC50 under setting [2] was 0.5 to 5 µM.
For `COc1ccc2c(c1)C(=O)N(Cc1ccc(O)cc1)C2=O` [Compound 30, 2-(4-hydroxybenzyl)-5-methoxyisoindoline-1,3-dione], the “Enzymatic Emax” value was “A (A>3)”. Moreover, the EC50 under setting [2] lay within 0.5 to 5 µM.
`O=C1c2ccccc2C(COc2cccc(Cl)n2)N1Cc1ccc2[nH]c(=O)oc2c1` (stereo not drawn) [Compound 260, 6-((1-(((6-chloropyridin-2-yl)oxy)methyl)-3-oxoisoindolin-2-yl)methyl)benzo[d]oxazol-2(3H)-one]: the “Enzymatic Emax” value is recorded as “B (3≥B>2)”. The EC50 under setting [2] fell in the range of 0.5 to 5 µM.
